In this experiment the target is Tumor necrosis factor (Homo sapiens, UniProt P01375). The experiment can be described thus: Binding affinity to TNF-alpha (unknown origin).

What is called Kd is the free concentration of one partner at which half of the binding sites on the other are occupied at equilibrium, for simple one-to-one binding. High values mean lower affinity, low ones higher affinity.

The structures appear in SMILES notation.

Tumor necrosis factor, sequence (P01375 whole entry): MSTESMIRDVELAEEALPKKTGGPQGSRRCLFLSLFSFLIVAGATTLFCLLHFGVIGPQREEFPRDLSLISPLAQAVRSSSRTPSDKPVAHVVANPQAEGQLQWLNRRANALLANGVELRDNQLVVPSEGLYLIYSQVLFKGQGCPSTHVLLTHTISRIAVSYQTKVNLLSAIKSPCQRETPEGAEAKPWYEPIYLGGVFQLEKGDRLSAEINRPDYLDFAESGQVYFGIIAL

`C[C@H](CC(=O)C[C@@H](C)[C@H]1C[C@@H](O)[C@@]2(C)C3=C(C(=O)C[C@@]12C)[C@@]1(C)CCC(=O)C(C)(C)[C@H]1C[C@@H]3O)C(=O)O` returned a Kd of 8 nM.

The record behind these values is BindingDB's records for doi:10.1016/j.ejmech.2014.06.037 (The Second People'S Hospital of Fujian Provinc, 2014).
